# What was measured:
# Toll-like receptor 1/2 = Toll-like receptor 1/2 (Homo sapiens, UniProt O60603+Q15399); experiment: Agonist activity at TLR2/TLR1 in human THP-1 cells; format: cell-based
# [1] = biological target: Toll-like receptor 1/2 (Mus musculus); experiment: Agonist activity at TLR2/TLR1 in mouse Macrophage cell line
# Toll-like receptor 1/2, sequence (O60603 whole entry): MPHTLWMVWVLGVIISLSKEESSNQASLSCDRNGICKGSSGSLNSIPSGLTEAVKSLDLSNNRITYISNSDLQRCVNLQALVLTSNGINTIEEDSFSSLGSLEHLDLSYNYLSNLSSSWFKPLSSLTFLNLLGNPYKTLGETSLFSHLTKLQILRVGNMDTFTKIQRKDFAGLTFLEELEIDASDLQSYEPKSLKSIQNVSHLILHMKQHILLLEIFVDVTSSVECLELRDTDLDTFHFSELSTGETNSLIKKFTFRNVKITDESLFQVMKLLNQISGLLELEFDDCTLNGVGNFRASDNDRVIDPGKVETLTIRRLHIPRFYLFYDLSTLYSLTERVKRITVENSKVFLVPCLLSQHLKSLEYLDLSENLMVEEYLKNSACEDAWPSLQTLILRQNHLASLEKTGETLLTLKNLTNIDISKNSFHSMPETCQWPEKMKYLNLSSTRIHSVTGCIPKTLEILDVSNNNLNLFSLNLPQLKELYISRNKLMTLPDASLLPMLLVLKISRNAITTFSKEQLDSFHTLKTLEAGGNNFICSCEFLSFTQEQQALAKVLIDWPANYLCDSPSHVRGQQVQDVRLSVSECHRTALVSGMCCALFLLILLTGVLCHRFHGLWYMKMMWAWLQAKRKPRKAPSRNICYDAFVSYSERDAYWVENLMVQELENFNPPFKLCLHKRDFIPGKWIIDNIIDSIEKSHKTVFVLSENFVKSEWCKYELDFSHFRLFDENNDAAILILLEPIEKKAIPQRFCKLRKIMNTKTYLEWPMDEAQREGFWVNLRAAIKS
# Toll-like receptor 1/2, sequence (Q15399 whole entry): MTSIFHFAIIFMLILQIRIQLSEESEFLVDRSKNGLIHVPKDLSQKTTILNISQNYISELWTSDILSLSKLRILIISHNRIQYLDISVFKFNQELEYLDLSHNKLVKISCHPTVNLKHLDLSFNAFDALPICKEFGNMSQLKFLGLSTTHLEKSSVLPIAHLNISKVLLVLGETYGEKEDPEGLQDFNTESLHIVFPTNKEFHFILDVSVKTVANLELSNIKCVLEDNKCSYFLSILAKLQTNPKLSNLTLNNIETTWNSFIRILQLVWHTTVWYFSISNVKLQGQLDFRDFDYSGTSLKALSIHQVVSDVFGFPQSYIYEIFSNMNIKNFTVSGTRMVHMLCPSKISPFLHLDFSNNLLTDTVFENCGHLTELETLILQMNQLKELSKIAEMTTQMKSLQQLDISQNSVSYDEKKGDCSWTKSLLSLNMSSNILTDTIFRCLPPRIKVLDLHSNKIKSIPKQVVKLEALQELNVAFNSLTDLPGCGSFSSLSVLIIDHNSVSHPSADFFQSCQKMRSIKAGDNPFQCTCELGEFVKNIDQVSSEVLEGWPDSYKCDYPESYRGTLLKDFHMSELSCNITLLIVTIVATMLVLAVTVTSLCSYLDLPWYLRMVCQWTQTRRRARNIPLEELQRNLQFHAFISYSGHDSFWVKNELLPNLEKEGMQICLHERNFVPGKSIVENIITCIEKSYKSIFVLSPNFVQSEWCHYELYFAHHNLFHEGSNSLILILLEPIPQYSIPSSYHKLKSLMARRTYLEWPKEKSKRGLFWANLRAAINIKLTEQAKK
SMILES,EC50 (Toll-like receptor 1/2),EC50 [1]
Cc1cc(C(=O)N2C[C@@H](C(=O)N[C@H]3C[C@@H]3c3ccccc3)[C@H](C(=O)N[C@H]3C[C@@H]3c3ccccc3)C2)c(C)cc1C(=O)N1C[C@@H](C(=O)N[C@H]2C[C@@H]2c2ccccc2)[C@H](C(=O)N[C@H]2C[C@@H]2c2ccccc2)C1,> 5000 nM,> 5000 nM
O=C(N[C@H]1C[C@@H]1c1ccccc1)[C@@H]1CN(C(=O)c2ccc(C(=O)N3C[C@@H](C(=O)N[C@H]4C[C@@H]4c4ccccc4)[C@H](C(=O)N[C@H]4C[C@@H]4c4ccccc4)C3)c3ccccc23)C[C@H]1C(=O)N[C@H]1C[C@@H]1c1ccccc1,> 5000 nM,> 5000 nM
O=C(N[C@H]1C[C@@H]1c1ccccc1)[C@@H]1CN(C(=O)COCC(=O)N2C[C@@H](C(=O)N[C@H]3C[C@@H]3c3ccccc3)[C@H](C(=O)N[C@H]3C[C@@H]3c3ccccc3)C2)C[C@H]1C(=O)N[C@H]1C[C@@H]1c1ccccc1,> 5000 nM,> 5000 nM
CCCCNC(=O)[C@@H]1CN(C(=O)c2ccc(C(=O)N3C[C@@H](C(=O)NCCCC)[C@H](C(=O)NCCCC)C3)cc2)C[C@H]1C(=O)NCCCC,> 5 nM,> 5 nM
O=C(N[C@H]1C[C@@H]1c1ccccc1)[C@@H]1CN(C(=O)c2ccc(C(=O)N3C[C@@H](C(=O)N[C@H]4C[C@@H]4c4ccccc4)[C@H](C(=O)N[C@H]4C[C@@H]4c4ccccc4)C3)c(Br)c2)C[C@H]1C(=O)N[C@H]1C[C@@H]1c1ccccc1,> 5000 nM,> 5000 nM
O=C(NCCc1ccc(F)cc1)[C@@H]1CN(C(=O)C/C=C/CC(=O)N2C[C@@H](C(=O)NCCc3ccc(F)cc3)[C@H](C(=O)NCCc3ccc(F)cc3)C2)C[C@H]1C(=O)NCCc1ccc(F)cc1,> 5000 nM,> 5000 nM
O=C(NCCc1ccc(Cl)cc1)[C@@H]1CN(C(=O)c2ccc(C(=O)N3C[C@@H](C(=O)NCCc4ccc(Cl)cc4)[C@H](C(=O)NCCc4ccc(Cl)cc4)C3)cc2)C[C@H]1C(=O)NCCc1ccc(Cl)cc1 (racemic),> 5000 nM,
O=C(N[C@H]1C[C@@H]1c1ccccc1)[C@@H]1CN(C(=O)Cc2ccc(CC(=O)N3C[C@@H](C(=O)N[C@H]4C[C@@H]4c4ccccc4)[C@H](C(=O)N[C@H]4C[C@@H]4c4ccccc4)C3)cc2)C[C@H]1C(=O)N[C@H]1C[C@@H]1c1ccccc1,> 5000 nM,> 5000 nM
O=C(NCCc1ccc(C(F)(F)F)cc1)[C@@H]1CN(C(=O)c2ccc(C(=O)N3C[C@@H](C(=O)NCCc4ccc(C(F)(F)F)cc4)[C@H](C(=O)NCCc4ccc(C(F)(F)F)cc4)C3)cc2)C[C@H]1C(=O)NCCc1ccc(C(F)(F)F)cc1 (racemic),> 5000 nM,
COC(=O)[C@@H]1CN(C(=O)c2ccc(C(=O)N3C[C@@H](C(=O)N[C@@H]4C[C@H]4c4ccccc4)[C@H](C(=O)OC)C3)cc2)C[C@H]1C(=O)N[C@@H]1C[C@H]1c1ccccc1,> 5000 nM,> 5000 nM
CCCCCCCCCCNC(=O)[C@@H]1CN(C(=O)c2ccc(C(=O)N3C[C@@H](C(=O)NCCCCCCCCCC)[C@H](C(=O)NCCCCCCCCCC)C3)cc2)C[C@H]1C(=O)NCCCCCCCCCC,,> 5 nM
N#Cc1ccc(CCNC(=O)[C@@H]2CN(C(=O)c3ccc(C(=O)N4C[C@@H](C(=O)NCCc5ccc(C#N)cc5)[C@H](C(=O)NCCc5ccc(C#N)cc5)C4)cc3)C[C@H]2C(=O)NCCc2ccc(C#N)cc2)cc1 (racemic),> 5000 nM,
O=C(NCCc1ccc(Br)cc1)[C@@H]1CN(C(=O)c2ccc(C(=O)N3C[C@@H](C(=O)NCCc4ccc(Br)cc4)[C@H](C(=O)NCCc4ccc(Br)cc4)C3)cc2)C[C@H]1C(=O)NCCc1ccc(Br)cc1 (racemic),> 5000 nM,
CCCCCCCCNC(=O)[C@@H]1CN(C(=O)c2ccc(C(=O)N3C[C@@H](C(=O)NCCCCCCCC)[C@H](C(=O)NCCCCCCCC)C3)cc2)C[C@H]1C(=O)NCCCCCCCC,,> 5 nM
O=C(NCCc1ccccc1F)[C@@H]1CN(C(=O)c2ccc(C(=O)N3C[C@@H](C(=O)NCCc4ccccc4F)[C@H](C(=O)NCCc4ccccc4F)C3)cc2)C[C@H]1C(=O)NCCc1ccccc1F (racemic),> 5000 nM,
CCCCCCNC(=O)[C@@H]1CN(C(=O)c2ccc(C(=O)N3C[C@@H](C(=O)NCCCCCC)[C@H](C(=O)NCCCCCC)C3)cc2)C[C@H]1C(=O)NCCCCCC,,> 5 nM
Nc1ccc(CCNC(=O)[C@@H]2CN(C(=O)c3ccc(C(=O)N4C[C@@H](C(=O)NCCc5ccc(N)cc5)[C@H](C(=O)NCCc5ccc(N)cc5)C4)cc3)C[C@H]2C(=O)NCCc2ccc(N)cc2)cc1 (racemic),> 5000 nM,
O=C(NCCc1ccccc1)[C@@H]1CN(C(=O)c2ccc(C(=O)N3C[C@@H](C(=O)NCCc4ccc5ccccc5c4)[C@H](C(=O)NCCc4ccc5ccccc5c4)C3)cc2)C[C@H]1C(=O)NCCc1ccc2ccccc2c1 (racemic),> 5000 nM,
COC(=O)c1ccc(CCNC(=O)[C@@H]2CN(C(=O)c3ccc(C(=O)N4C[C@@H](C(=O)NCCc5ccc(C(=O)OC)cc5)[C@H](C(=O)NCCc5ccc(C(=O)OC)cc5)C4)cc3)C[C@H]2C(=O)NCCc2ccc(C(=O)OC)cc2)cc1 (racemic),> 5000 nM,
O=C(NCCc1ccc([N+](=O)[O-])cc1)[C@@H]1CN(C(=O)c2ccc(C(=O)N3C[C@@H](C(=O)NCCc4ccc([N+](=O)[O-])cc4)[C@H](C(=O)NCCc4ccc([N+](=O)[O-])cc4)C3)cc2)C[C@H]1C(=O)NCCc1ccc([N+](=O)[O-])cc1 (racemic),> 5000 nM,
O=C(NCCc1ccc(O)cc1)[C@@H]1CN(C(=O)c2ccc(C(=O)N3C[C@@H](C(=O)NCCc4ccc(O)cc4)[C@H](C(=O)NCCc4ccc(O)cc4)C3)cc2)C[C@H]1C(=O)NCCc1ccc(O)cc1 (racemic),> 5000 nM,
CCCCCCCCCCCCCCCCNC(=O)[C@@H]1CN(C(=O)c2ccc(C(=O)N3C[C@@H](C(=O)NCCCCCCCCCCCCCCCC)[C@H](C(=O)NCCCCCCCCCCCCCCCC)C3)cc2)C[C@H]1C(=O)NCCCCCCCCCCCCCCCC,,> 5 nM
O=C(NCCc1ccc(-c2ccccc2)cc1)[C@@H]1CN(C(=O)c2ccc(C(=O)N3C[C@@H](C(=O)NCCc4ccc(-c5ccccc5)cc4)[C@H](C(=O)NCCc4ccc(-c5ccccc5)cc4)C3)cc2)C[C@H]1C(=O)NCCc1ccc(-c2ccccc2)cc1 (racemic),> 5000 nM,
Cc1ccc(CCNC(=O)[C@@H]2CN(C(=O)c3ccc(C(=O)N4C[C@@H](C(=O)NCCc5ccc(C)cc5)[C@H](C(=O)NCCc5ccc(C)cc5)C4)cc3)C[C@H]2C(=O)NCCc2ccc(C)cc2)cc1 (racemic),> 5000 nM,
COc1ccc(CCNC(=O)[C@@H]2CN(C(=O)c3ccc(C(=O)N4C[C@@H](C(=O)NCCc5ccc(OC)cc5)[C@H](C(=O)NCCc5ccc(OC)cc5)C4)cc3)C[C@H]2C(=O)NCCc2ccc(OC)cc2)cc1 (racemic),> 5000 nM,

# Now from value to molecule:
EC50 (Toll-like receptor 1/2),EC50 [1],SMILES
35 nM,1100 nM,CCCCCCCCCCNC(=O)[C@@H]1CN(C(=O)c2ccc(C(=O)N3C[C@@H](C(=O)NCCCCCCCCCC)[C@H](C(=O)N[C@@H]4C[C@H]4c4ccccc4)C3)cc2)C[C@H]1C(=O)N[C@@H]1C[C@H]1c1ccccc1
40 nM,5000 nM,O=C(N[C@H]1C[C@@H]1c1ccc(Cl)cc1)[C@@H]1CN(C(=O)c2ccc(C(=O)N3C[C@@H](C(=O)N[C@H]4C[C@@H]4c4ccc(Cl)cc4)[C@H](C(=O)N[C@@H]4C[C@H]4c4ccc(Cl)cc4)C3)cc2)C[C@H]1C(=O)N[C@H]1C[C@@H]1c1ccc(Cl)cc1
0.08 nM,1.1 nM,CCCCCCCCCCCCCCNC(=O)[C@@H]1CN(C(=O)c2ccc(C(=O)N3C[C@@H](C(=O)N[C@H]4C[C@@H]4c4ccccc4)[C@H](C(=O)N[C@@H]4C[C@H]4c4ccccc4)C3)cc2)C[C@H]1C(=O)N[C@H]1C[C@@H]1c1ccccc1
50 nM,360 nM,CCCCCCNC(=O)[C@@H]1CN(C(=O)c2ccc(C(=O)N3C[C@@H](C(=O)N[C@H]4C[C@@H]4c4ccccc4)[C@H](C(=O)N[C@@H]4C[C@H]4c4ccccc4)C3)cc2)C[C@H]1C(=O)NCCCCCC
90 nM,2300 nM,O=C(N[C@H]1C[C@@H]1c1ccccc1)[C@@H]1CN(C(=O)c2ccc(-c3ccc(C(=O)N4C[C@@H](C(=O)N[C@H]5C[C@@H]5c5ccccc5)[C@H](C(=O)N[C@H]5C[C@@H]5c5ccccc5)C4)cc3)cc2)C[C@H]1C(=O)N[C@H]1C[C@@H]1c1ccccc1
360 nM,> 5000 nM,O=C(N[C@H]1C[C@@H]1c1ccccc1)[C@@H]1CN(C(=O)c2cc(Cl)c(C(=O)N3C[C@@H](C(=O)N[C@H]4C[C@@H]4c4ccccc4)[C@H](C(=O)N[C@H]4C[C@@H]4c4ccccc4)C3)cc2Cl)C[C@H]1C(=O)N[C@H]1C[C@@H]1c1ccccc1
0.1 nM,2.1 nM,CCCCCCCCCCCCNC(=O)[C@@H]1CN(C(=O)c2ccc(C(=O)N3C[C@@H](C(=O)N[C@H]4C[C@@H]4c4ccccc4)[C@H](C(=O)N[C@@H]4C[C@H]4c4ccccc4)C3)cc2)C[C@H]1C(=O)N[C@H]1C[C@@H]1c1ccccc1
20 nM,> 5000 nM,O=C(N[C@H]1C[C@@H]1c1ccccc1)[C@@H]1CN(C(=O)c2cc(O)c(C(=O)N3C[C@@H](C(=O)N[C@H]4C[C@@H]4c4ccccc4)[C@H](C(=O)N[C@H]4C[C@@H]4c4ccccc4)C3)cc2O)C[C@H]1C(=O)N[C@H]1C[C@@H]1c1ccccc1
20 nM,> 5000 nM,O=C(N[C@H]1C[C@@H]1c1ccccc1)[C@@H]1CN(C(=O)c2ccc(C(=O)N3C[C@@H](C(=O)N[C@H]4C[C@@H]4c4ccccc4)[C@H](C(=O)N[C@H]4C[C@@H]4c4ccccc4)C3)c(O)c2)C[C@H]1C(=O)N[C@H]1C[C@@H]1c1ccccc1
3.5 nM,710 nM,CCCCCCCCNC(=O)[C@@H]1CN(C(=O)c2ccc(C(=O)N3C[C@@H](C(=O)NCCCCCCCC)[C@H](C(=O)N[C@@H]4C[C@H]4c4ccccc4)C3)cc2)C[C@H]1C(=O)N[C@@H]1C[C@H]1c1ccccc1
110 nM,> 5000 nM,O=C(N[C@H]1C[C@@H]1c1ccccc1)[C@@H]1CN(C(=O)c2c(F)c(F)c(C(=O)N3C[C@@H](C(=O)N[C@H]4C[C@@H]4c4ccccc4)[C@H](C(=O)N[C@H]4C[C@@H]4c4ccccc4)C3)c(F)c2F)C[C@H]1C(=O)N[C@H]1C[C@@H]1c1ccccc1
2 nM,380 nM,O=C(N[C@H]1C[C@@H]1c1ccccc1)[C@@H]1CN(C(=O)c2ccc3cc(C(=O)N4C[C@@H](C(=O)N[C@H]5C[C@@H]5c5ccccc5)[C@H](C(=O)N[C@H]5C[C@@H]5c5ccccc5)C4)ccc3c2)C[C@H]1C(=O)N[C@H]1C[C@@H]1c1ccccc1

# Reference: ChEMBL document CHEMBL5226282, “TLR2 Agonistic Small Molecules: Detailed Structure-Activity Relationship, Applications, and Future Prospects” (J Med Chem, 2021)
